# Test results: patent US5219855A, “Anxiolytic drug” (Mitsubishi Kasei Corporation, priority 1988, dated 1993)
# Where a name gives a salt, the structure may show the parent alone.
# Target: T1, 5-HT1A receptor (Rattus norvegicus, UniProt P19327)
# T1 construct: a rat brain was homogenized in Tris buffer and centrifuged; from tissue; host or cells: rat brain membrane preparation
# T1 sequence (P19327 1-422): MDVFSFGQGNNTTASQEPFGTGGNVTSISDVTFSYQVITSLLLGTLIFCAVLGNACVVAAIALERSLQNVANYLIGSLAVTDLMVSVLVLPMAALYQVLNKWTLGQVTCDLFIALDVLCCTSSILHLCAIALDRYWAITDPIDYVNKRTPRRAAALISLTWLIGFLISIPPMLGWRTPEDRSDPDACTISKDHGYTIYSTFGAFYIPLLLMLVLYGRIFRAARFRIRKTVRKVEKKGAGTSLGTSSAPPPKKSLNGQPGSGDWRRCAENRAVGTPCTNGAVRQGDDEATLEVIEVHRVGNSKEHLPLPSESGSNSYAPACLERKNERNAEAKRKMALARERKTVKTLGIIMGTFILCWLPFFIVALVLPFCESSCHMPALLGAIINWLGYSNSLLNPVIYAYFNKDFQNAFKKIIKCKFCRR
# Assay: binding assay using [3H]8-OH-DPAT, rat brain membrane preparation
# Protocol: To say more exactly, a rat brain was homogenized in Tris buffer and centrifuged. The resultant sediment was rehomogenized using Tris buffer and incubated at 37° C. for 10 minutes, followed by centrifugation. The resulting deposit was homogenized in Tris buffer containing pargyline, calcium chloride and ascorbic acid and subjected to binding assay (membrane preparation).
# The assay was carried out by combining the membrane preparation with [3H]8-OH-DPAT and the test compound and then incubating at 37° C. for 10 minutes.
# Subsequently, the mixture was immediately filtered through a Whatman GF/B filter and the radio-activity remaining on the filter was measured by liquid chromatography.
# The binding capacity of the test compound to 5-HT1A receptor was expressed as Ki value calculated by the formula: [formula] wherein [L] denotes the concentration of [3H]8-OH-DPAT, kd represents the dissociation constant, and IC50 represents the concentration of the test compound required to produce a 50% inhibition of [3H]8-OH-DPAT binding.
row,SMILES,Ki [nM]
1,FC(F)(F)c1cccc(N2CCN(CCCCOc3ccc4c(c3)OCO4)CC2)c1 [No. 6],55.9
2,c1ccc(N2CCN(CCCCOc3ccc4c(c3)OCCO4)CC2)cc1 [No. 19],16
3,c1ccc(N2CCN(CCOc3ccc4c(c3)OCO4)CC2)cc1 [No. 16],127
4,[O-][S+](CCCN1CCN(c2ccccc2)CC1)c1ccc2c(c1)OCCCO2 (stereo not shown) [No. 22],25.4
5,Fc1ccc(N2CCN(CCCCOc3ccc4c(c3)OCO4)CC2)cc1 [No. 5],33.2
6,Fc1ccc(N2CCN(CCCOc3ccc4c(c3)OCO4)CC2)cc1 [No. 12],16
7,c1ccc(N2CCN(CCCSc3ccc4c(c3)OCCO4)CC2)cc1 [No. 21],71.2
8,c1ccc(N2CCN(CCCNc3ccc4c(c3)OCO4)CC2)cc1 [No. 11],18
9,Cc1ccccc1N1CCN(CCCOc2ccc3c(c2)OCO3)CC1 [No. 14],101
10,O=C(CCN1CCN(c2ccccc2)CC1)Nc1ccc2c(c1)OCO2 [No. 10],25.4
11,"O=C1c2ccccc2S(=O)(=O)N1CCCCN1CCN(c2ncccn2)CC1 [Ipsapirone, 2-(4-(4-(2-pyrimidinyl)-1-piperazinyl)butyl)-1,2-benzisothiazol-3-(2H)one-1,1-dioxydehydrochloride, reference compound]",2.2

# More lines, now with the values ahead:
row,Ki [nM],SMILES
1,5.7,O=C(CCCN1CCN(c2ccccc2)CC1)c1ccc2c(c1)OCO2 [No. 17]
2,4.7,c1ccc(N2CCN(CCCOc3ccc4c(c3)OCO4)CC2)cc1 [No. 1]
3,2.4,c1ccc(N2CCN(CCCOc3ccc4c(c3)OCO4)CC2)nc1 [No. 2]
4,8,OC(CCCN1CCN(c2ccccc2)CC1)c1ccc2c(c1)OCO2 (stereo not shown) [No. 18]
5,10.1,O=C(CCCCN1CCN(c2ccccc2)CC1)c1ccc2c(c1)OCO2 [No. 20]
6,5.7,COc1cc(OCCCN2CCN(c3ccccc3)CC2)cc(OC)c1OC [No. 7]
7,10.1,c1ccc(N2CCN(CCCCOc3ccc4c(c3)OCO4)CC2)cc1 [No. 4]
8,10.1,c1cnc(N2CCN(CCCOc3ccc4c(c3)OCO4)CC2)nc1 [No. 3]
9,5.7,c1ccc(N2CCN(CCCOc3ccc4c(c3)OCCO4)CC2)cc1 [No. 15]
10,8,FC(F)(F)c1cccc(N2CCN(CCCOc3ccc4c(c3)OCO4)CC2)c1 [No. 13]
11,14.3,COc1ccc(OCCCN2CCN(c3ccccc3OC)CC2)cc1OC [No. 8]
